Results published in ChEMBL document CHEMBL5729431, “Benzisoxazole sulfonamide derivatives” (2022).

Experiments:
[1] = target: T1, Histone acetyltransferase KAT8 (Homo sapiens, UniProt Q9H7Z6); experiment: (§1) Kat8 Assay: TBDA. Compound preparation 1. Prepare 10 mM stock solutions in 100% DMSO from solid material 2. Serial dilute 10 mM, 1 mM or 0.1 mM compound stocks 3-fold in 100% DMSO for 11-point dose responseB. Reagent preparation 1. Prepare 1× assay buffer containing 10 mM Tris HCL pH 8.0, 2.5 mM NaCl, 0.5 mM EDTA, 0.005% BSG and 0.02% Tween-20 2. Dilute Histone peptide (CPC Scientific) and AcCoA (Sigma) together in assay buffer to 2×. 3. Dilute KAT enzyme in assay buffer to 2×.C. Enzyme reaction 1. Final reaction conditions for each KAT assay in a 20 ul assay reaction volume: KAT8 15 nM, 1 uM AcCoA, 2 uM H3 1-21 peptide, 45-minute reaction 2. Add 0.5 ul of diluted compound to the assay plate (384-well V-bottom polypropylene plates) or 0.5 ul of DMSO for control wells. 3. Add 10 ul of 2× Histone peptide/2×AcCoA mix to the assay plate. 4. Add 10 ul of 2× enzyme to the assay plate. 5. Stop the reaction after the indicated time with the addition of 2 ul of 5% formic acid 6. Each reaction was analyzed using self-assembled monolayer desorption/ionization time-of-flight mass spectrometry (Mrksich, Milan (2008) Mass Spectrometry of Self-Assembled Monolayers: A New Tool for Molecular Surface Science ACS Nano 2008 2 (1), 7-18; SAMDI Tech, Inc. (Chicago, Ill.)). 7. […]
T1 sequence (Q9H7Z6 whole entry): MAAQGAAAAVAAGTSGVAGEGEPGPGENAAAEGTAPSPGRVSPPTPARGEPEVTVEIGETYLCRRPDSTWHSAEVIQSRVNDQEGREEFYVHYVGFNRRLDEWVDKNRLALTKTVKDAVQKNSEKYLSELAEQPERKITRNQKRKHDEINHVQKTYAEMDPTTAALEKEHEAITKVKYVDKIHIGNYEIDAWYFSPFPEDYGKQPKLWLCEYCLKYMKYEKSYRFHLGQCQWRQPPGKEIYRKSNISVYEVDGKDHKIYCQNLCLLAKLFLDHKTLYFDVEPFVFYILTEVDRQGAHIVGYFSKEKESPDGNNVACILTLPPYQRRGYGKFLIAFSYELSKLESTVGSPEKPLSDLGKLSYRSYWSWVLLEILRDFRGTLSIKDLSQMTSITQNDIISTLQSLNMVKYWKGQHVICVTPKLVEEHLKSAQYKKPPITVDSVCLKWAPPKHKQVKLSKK

[2] = target: Histone acetyltransferase KAT7 (Homo sapiens, UniProt O95251); experiment: as §1, with “Kat7” for “Kat8”, “A.” for “TBDA.”, “KAT7 12.5” for “KAT8 15”
Histone acetyltransferase KAT7, sequence (O95251 whole entry): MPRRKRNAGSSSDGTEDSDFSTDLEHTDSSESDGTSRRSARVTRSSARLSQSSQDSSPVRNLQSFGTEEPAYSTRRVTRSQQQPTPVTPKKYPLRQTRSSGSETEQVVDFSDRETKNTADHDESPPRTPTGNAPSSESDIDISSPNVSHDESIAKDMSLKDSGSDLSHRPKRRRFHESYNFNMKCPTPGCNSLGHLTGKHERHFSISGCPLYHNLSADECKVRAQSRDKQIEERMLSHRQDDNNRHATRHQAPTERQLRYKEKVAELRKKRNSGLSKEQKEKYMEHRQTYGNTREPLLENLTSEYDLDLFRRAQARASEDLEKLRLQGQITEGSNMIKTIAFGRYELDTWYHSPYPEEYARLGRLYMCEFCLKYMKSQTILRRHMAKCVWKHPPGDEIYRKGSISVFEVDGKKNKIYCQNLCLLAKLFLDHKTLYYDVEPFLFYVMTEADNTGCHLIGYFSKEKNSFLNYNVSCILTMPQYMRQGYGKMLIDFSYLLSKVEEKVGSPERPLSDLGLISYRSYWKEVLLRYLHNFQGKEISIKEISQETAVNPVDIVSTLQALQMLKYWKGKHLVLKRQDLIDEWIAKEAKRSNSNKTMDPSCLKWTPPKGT

[3] = target: Histone acetyltransferase KAT6A (Homo sapiens, UniProt Q92794); experiment: as §1, with “Kat6A Assay 1: A.” for “Kat8 Assay: TBDA.”, “ii. KAT6A” for “KAT8”
[4] = target: Histone acetyltransferase KAT6B (Homo sapiens, UniProt Q8WYB5); experiment: as §1, with “Kat6B Assay 1: A.” for “Kat8 Assay: TBDA.”, “KAT6B 25” for “KAT8 15”, “60-minute” for “45-minute”
Histone acetyltransferase KAT6B, sequence (Q8WYB5 whole entry): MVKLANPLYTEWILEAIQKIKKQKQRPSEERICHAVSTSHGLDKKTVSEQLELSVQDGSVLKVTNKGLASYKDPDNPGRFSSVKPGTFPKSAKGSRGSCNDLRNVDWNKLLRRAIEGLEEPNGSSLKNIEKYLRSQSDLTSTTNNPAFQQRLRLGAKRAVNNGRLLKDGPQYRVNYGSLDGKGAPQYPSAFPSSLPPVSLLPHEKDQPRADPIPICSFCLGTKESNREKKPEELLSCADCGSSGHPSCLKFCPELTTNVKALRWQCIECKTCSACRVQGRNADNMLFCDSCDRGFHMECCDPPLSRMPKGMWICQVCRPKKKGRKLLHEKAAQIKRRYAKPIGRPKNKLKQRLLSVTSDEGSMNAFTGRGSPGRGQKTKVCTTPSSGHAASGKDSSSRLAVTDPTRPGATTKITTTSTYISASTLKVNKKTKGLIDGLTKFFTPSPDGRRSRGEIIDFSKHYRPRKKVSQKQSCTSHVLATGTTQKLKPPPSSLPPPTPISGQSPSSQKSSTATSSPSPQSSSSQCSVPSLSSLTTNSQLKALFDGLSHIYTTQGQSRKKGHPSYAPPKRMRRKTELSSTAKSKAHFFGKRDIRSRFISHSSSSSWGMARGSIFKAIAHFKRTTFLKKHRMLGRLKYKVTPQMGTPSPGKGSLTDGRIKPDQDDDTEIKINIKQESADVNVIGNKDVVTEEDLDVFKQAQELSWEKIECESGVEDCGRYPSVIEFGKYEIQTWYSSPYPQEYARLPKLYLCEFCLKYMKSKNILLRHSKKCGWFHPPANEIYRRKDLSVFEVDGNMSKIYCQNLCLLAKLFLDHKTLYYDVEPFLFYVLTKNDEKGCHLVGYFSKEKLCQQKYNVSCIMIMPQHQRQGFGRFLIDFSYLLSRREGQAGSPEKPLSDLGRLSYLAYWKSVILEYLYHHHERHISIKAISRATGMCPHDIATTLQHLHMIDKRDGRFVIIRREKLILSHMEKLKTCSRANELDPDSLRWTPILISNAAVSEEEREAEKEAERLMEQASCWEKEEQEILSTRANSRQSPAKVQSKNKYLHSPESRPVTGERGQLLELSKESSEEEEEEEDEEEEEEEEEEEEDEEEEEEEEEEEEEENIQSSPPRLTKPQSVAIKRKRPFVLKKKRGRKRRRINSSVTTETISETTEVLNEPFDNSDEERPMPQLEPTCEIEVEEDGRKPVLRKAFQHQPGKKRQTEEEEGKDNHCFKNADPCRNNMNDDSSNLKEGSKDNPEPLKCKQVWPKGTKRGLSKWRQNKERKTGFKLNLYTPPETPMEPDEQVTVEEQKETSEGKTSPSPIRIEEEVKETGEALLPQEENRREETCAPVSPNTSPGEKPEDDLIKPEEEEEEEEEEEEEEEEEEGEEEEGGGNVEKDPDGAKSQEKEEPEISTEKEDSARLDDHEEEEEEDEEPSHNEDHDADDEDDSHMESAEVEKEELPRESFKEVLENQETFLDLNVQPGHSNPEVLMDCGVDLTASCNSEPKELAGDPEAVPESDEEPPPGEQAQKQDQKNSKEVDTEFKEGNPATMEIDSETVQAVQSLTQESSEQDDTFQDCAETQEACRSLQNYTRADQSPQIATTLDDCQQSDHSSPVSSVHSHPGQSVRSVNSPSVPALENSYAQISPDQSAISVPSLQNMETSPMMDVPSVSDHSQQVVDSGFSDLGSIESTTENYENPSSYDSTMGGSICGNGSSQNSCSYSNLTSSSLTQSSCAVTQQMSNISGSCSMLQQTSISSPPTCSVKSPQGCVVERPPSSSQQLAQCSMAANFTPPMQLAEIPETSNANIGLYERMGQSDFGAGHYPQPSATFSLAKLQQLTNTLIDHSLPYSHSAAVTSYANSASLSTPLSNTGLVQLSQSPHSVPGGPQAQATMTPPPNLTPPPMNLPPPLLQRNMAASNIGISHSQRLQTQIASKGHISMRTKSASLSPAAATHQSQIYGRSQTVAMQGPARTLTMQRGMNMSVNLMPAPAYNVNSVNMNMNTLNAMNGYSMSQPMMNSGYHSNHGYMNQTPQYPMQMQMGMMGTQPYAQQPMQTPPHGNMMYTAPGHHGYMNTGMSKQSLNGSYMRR

[5] = target: Histone acetyltransferase KAT5 (Homo sapiens, UniProt Q92993); experiment: as §1, with “Kat5” for “Kat8”, “A.” for “TBDA.”, “KAT5 25” for “KAT8 15”, “H4” for “H3”, “30-minute” for “45-minute”
Histone acetyltransferase KAT5, sequence (Q92993 whole entry): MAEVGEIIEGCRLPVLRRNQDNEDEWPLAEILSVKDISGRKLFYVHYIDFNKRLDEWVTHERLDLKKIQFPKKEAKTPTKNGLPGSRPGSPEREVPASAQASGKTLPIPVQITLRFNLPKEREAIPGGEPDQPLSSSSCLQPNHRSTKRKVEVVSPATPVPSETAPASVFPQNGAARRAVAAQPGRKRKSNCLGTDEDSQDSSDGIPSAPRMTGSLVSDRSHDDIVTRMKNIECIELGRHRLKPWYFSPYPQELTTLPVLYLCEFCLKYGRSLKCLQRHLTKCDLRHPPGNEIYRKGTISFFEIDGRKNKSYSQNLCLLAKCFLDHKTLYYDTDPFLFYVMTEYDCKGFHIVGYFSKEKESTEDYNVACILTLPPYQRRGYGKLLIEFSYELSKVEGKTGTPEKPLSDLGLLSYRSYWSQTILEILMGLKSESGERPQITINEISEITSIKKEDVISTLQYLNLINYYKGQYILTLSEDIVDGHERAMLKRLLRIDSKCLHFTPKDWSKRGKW

Ki [1]: 20600 nM | Ki [2]: 900 nM | Ki [3]: 10.3 nM | Ki [4]: 60.8 nM | Ki [5]: 5980 nM
Structure (SMILES): COc1cc(Cn2cccn2)cc2onc(NS(=O)(=O)c3ccccc3)c12
